From the NIST ThermoML archive (doi:10.1021/je025630q)

Test: compressibility factor (dimensionless); xn = mol fraction of the nth substance listed
Details: Gas, Burnett expansion method

CF [fluoromethane] + O=C=O
Details	compressibility factor
303.15 K, 126.9 kPa, x2 = 0.283	0.995
303.15 K, 139.3 kPa, x2 = 0.402	0.9955
303.15 K, 155.9 kPa, x2 = 0.59	0.9951
303.15 K, 174.7 kPa, x2 = 0.798	0.9946
303.15 K, 188.9 kPa, x2 = 0.283	0.9896
303.15 K, 207.3 kPa, x2 = 0.402	0.9896
303.15 K, 231.9 kPa, x2 = 0.59	0.9892
303.15 K, 259.9 kPa, x2 = 0.798	0.9886
303.15 K, 280.7 kPa, x2 = 0.283	0.9823
303.15 K, 308 kPa, x2 = 0.402	0.9821
303.15 K, 344.5 kPa, x2 = 0.59	0.9815
303.15 K, 386 kPa, x2 = 0.798	0.9807
303.15 K, 415.8 kPa, x2 = 0.283	0.9721
303.15 K, 456.1 kPa, x2 = 0.402	0.9715
303.15 K, 510 kPa, x2 = 0.59	0.9708
303.15 K, 571.5 kPa, x2 = 0.798	0.97
303.15 K, 613.1 kPa, x2 = 0.283	0.9576
303.15 K, 672.2 kPa, x2 = 0.402	0.9564
303.15 K, 751.4 kPa, x2 = 0.59	0.9555
303.15 K, 842 kPa, x2 = 0.798	0.9547
303.15 K, 897.8 kPa, x2 = 0.283	0.9368
303.15 K, 983.5 kPa, x2 = 0.402	0.9349
303.15 K, 1099.1 kPa, x2 = 0.59	0.9337
303.15 K, 1231.1 kPa, x2 = 0.798	0.9326
303.15 K, 1300.8 kPa, x2 = 0.283	0.9066
303.15 K, 1423.2 kPa, x2 = 0.402	0.9038
303.15 K, 1589.6 kPa, x2 = 0.59	0.9021
303.15 K, 1779.6 kPa, x2 = 0.798	0.9006
303.15 K, 1854.5 kPa, x2 = 0.283	0.8635
303.15 K, 2025.1 kPa, x2 = 0.402	0.8591
303.15 K, 2259.3 kPa, x2 = 0.59	0.8566
303.15 K, 2527 kPa, x2 = 0.798	0.8543
303.15 K, 2578.9 kPa, x2 = 0.283	0.8022
303.15 K, 2808.4 kPa, x2 = 0.402	0.7959
303.15 K, 3127.5 kPa, x2 = 0.59	0.7921
303.15 K, 3455.9 kPa, x2 = 0.283	0.7182
303.15 K, 3491.8 kPa, x2 = 0.798	0.7886
303.15 K, 3745.5 kPa, x2 = 0.402	0.7091
303.15 K, 4156.5 kPa, x2 = 0.59	0.7033
303.15 K, 4628.3 kPa, x2 = 0.798	0.6983
313.15 K, 128.9 kPa, x2 = 0.206	0.9928
313.15 K, 139.2 kPa, x2 = 0.778	1
313.15 K, 156.2 kPa, x2 = 0.593	0.9925
313.15 K, 175 kPa, x2 = 0.408	0.9921
313.15 K, 192.3 kPa, x2 = 0.206	0.9894
313.15 K, 207.3 kPa, x2 = 0.778	0.9946
313.15 K, 233 kPa, x2 = 0.593	0.989
313.15 K, 260.7 kPa, x2 = 0.408	0.9874
313.15 K, 286.2 kPa, x2 = 0.206	0.9837
313.15 K, 308.2 kPa, x2 = 0.778	0.9881
313.15 K, 346.7 kPa, x2 = 0.593	0.9829
313.15 K, 387.2 kPa, x2 = 0.408	0.9799
313.15 K, 424.5 kPa, x2 = 0.206	0.9746
313.15 K, 457.5 kPa, x2 = 0.778	0.9798
313.15 K, 514.3 kPa, x2 = 0.593	0.974
313.15 K, 573.2 kPa, x2 = 0.408	0.9689
313.15 K, 626.8 kPa, x2 = 0.206	0.9613
313.15 K, 676.8 kPa, x2 = 0.778	0.9683
313.15 K, 759.4 kPa, x2 = 0.593	0.9608
313.15 K, 843.8 kPa, x2 = 0.408	0.9529
313.15 K, 919.1 kPa, x2 = 0.206	0.9417
313.15 K, 996 kPa, x2 = 0.778	0.9519
313.15 K, 1113.9 kPa, x2 = 0.593	0.9415
313.15 K, 1231.8 kPa, x2 = 0.408	0.9293
313.15 K, 1334.2 kPa, x2 = 0.206	0.9132
313.15 K, 1453.8 kPa, x2 = 0.778	0.9282
313.15 K, 1617 kPa, x2 = 0.593	0.913
313.15 K, 1775.9 kPa, x2 = 0.408	0.895
313.15 K, 1907.6 kPa, x2 = 0.206	0.8722
313.15 K, 2096.6 kPa, x2 = 0.778	0.8943
313.15 K, 2311.9 kPa, x2 = 0.593	0.8721
313.15 K, 2512.5 kPa, x2 = 0.408	0.846
313.15 K, 2665.8 kPa, x2 = 0.206	0.8143
313.15 K, 2967.7 kPa, x2 = 0.778	0.8457
313.15 K, 3229.5 kPa, x2 = 0.593	0.8138
313.15 K, 3455.2 kPa, x2 = 0.408	0.7772
313.15 K, 3600.8 kPa, x2 = 0.206	0.7348
313.15 K, 4083.3 kPa, x2 = 0.778	0.7773
313.15 K, 4357.3 kPa, x2 = 0.593	0.7335
313.15 K, 4556.4 kPa, x2 = 0.408	0.6847
313.15 K, 4622.8 kPa, x2 = 0.206	0.6302
313.15 K, 5382.3 kPa, x2 = 0.778	0.6845
313.15 K, 5581 kPa, x2 = 0.593	0.6277
313.15 K, 5645.6 kPa, x2 = 0.408	0.5668
323.15 K, 133.2 kPa, x2 = 0.378	0.9948
323.15 K, 137 kPa, x2 = 0.791	0.995
323.15 K, 142.6 kPa, x2 = 0.619	0.9967
323.15 K, 156.6 kPa, x2 = 0.189	0.9918
323.15 K, 198.7 kPa, x2 = 0.378	0.9914
323.15 K, 204.4 kPa, x2 = 0.791	0.9921
323.15 K, 212.6 kPa, x2 = 0.619	0.9926
323.15 K, 233.4 kPa, x2 = 0.189	0.9875
323.15 K, 295.9 kPa, x2 = 0.378	0.986
323.15 K, 304.7 kPa, x2 = 0.791	0.9877
323.15 K, 316.4 kPa, x2 = 0.619	0.9871
323.15 K, 347.1 kPa, x2 = 0.189	0.9809
323.15 K, 439.4 kPa, x2 = 0.378	0.9783
323.15 K, 453 kPa, x2 = 0.791	0.9812
323.15 K, 469.9 kPa, x2 = 0.619	0.9793
323.15 K, 514.3 kPa, x2 = 0.189	0.971
323.15 K, 650.1 kPa, x2 = 0.378	0.967
323.15 K, 671.5 kPa, x2 = 0.791	0.9715
323.15 K, 695.4 kPa, x2 = 0.619	0.9682
323.15 K, 758.3 kPa, x2 = 0.189	0.9564
323.15 K, 956.3 kPa, x2 = 0.378	0.9502
323.15 K, 990.6 kPa, x2 = 0.791	0.9574
